Test system: AMPK
Assay: AMPK enzyme activity assay (Delfia technology, AMARA peptide substrate)
Assay type: biochemical
Conditions: compound at 30 μM vs AMP at 200 μM
Summary of the method: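 Value is the ratio of compound (30 μM) to AMP (200 μM) response, each as % of basal control. Phosphorylation of the AMARA peptide after AMPK addition was read by Delfia with an anti-phosphoserine antibody.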

SMILES | Activity: Ratio between the % of control (basal activity) of compound of formula (1) at 30 μM and the % of control (basal activity) of AMP (natural substrate) at 200 μM
COc1cccc(-c2c(Cl)sc3c2C(=O)C(C)(c2cccc(C)c2)C(=O)N3)c1 (centres unmarked) [No 44, 2-chloro-3-(3-methoxyphenyl)-5-methyl-5-(m-tolyl)-7H-thieno[2,3-b]pyridine-4,6-dione] | A (0%<A<50%)
O=C1Nc2scc(-c3ccccc3Cl)c2C(=O)C1(F)c1ccccc1 (centres unmarked) [No 138, 3-(2-chlorophenyl)-5-fluoro-5-phenyl-7H-thieno[2,3-b]pyridine-4,6-dione] | B (50%≦B<75%)
CC1(c2ccccc2F)C(=O)Nc2sc(Cl)c(-c3cccc(F)c3)c2C1=O (centres unmarked) [No 104, 2-chloro-5-(2-fluorophenyl)-3-(3-fluorophenyl)-5-methyl-7H-thieno[2,3-b]pyridine-4,6-dione] | B (50%≦B<75%)
COc1cccc(-c2c(Cl)sc3c2C(=O)C(C)(c2cccc(OC)c2)C(=O)N3)c1 (centres unmarked) [No 61, 2-chloro-3,5-bis(3-methoxyphenyl)-5-methyl-7H-thieno[2,3-b]pyridine-4,6-dione] | C (C≧75%)
O=C1Nc2scc(-c3ccccc3O)c2C(=O)C1(F)c1ccccc1 (centres unmarked) [No 147, 5-fluoro-3-(2-hydroxyphenyl)-5-phenyl-7H-thieno[2,3-b]pyridine-4,6-dione] | C (C≧75%)
COc1c(-c2c(Cl)sc3c2C(=O)C(F)(c2ccc(F)cc2)C(=O)N3)ccc(C)c1F (centres unmarked) [No 227, 2-chloro-5-fluoro-3-(3-fluoro-2-methoxy-4-methyl-phenyl)-5-(4-fluorophenyl)-7H-thieno[2,3-b]pyridine-4,6-dione] | B (50%≦B<75%)
Cc1ccc(-c2c(C)sc3c2C(=O)C(F)(c2ccccc2)C(=O)N3)c(O)c1F (centres unmarked) [No 192, 5-fluoro-3-(3-fluoro-2-hydroxy-4-methyl-phenyl)-2-methyl-5-phenyl-7H-thieno[2,3-b]pyridine-4,6-dione] | C (C≧75%)
O=C1Nc2scc(-c3cccc(O)c3)c2C(=O)C1(F)c1ccccc1 (centres unmarked) [No 204, 5-fluoro-3-(3-hydroxyphenyl)-5-phenyl-7H-thieno[2,3-b]pyridine-4,6-dione] | C (C≧75%)
COc1cccc(C2(C)C(=O)Nc3sc(Cl)c(-c4cccc(F)c4)c3C2=O)c1 (centres unmarked) [No 105, 2-chloro-3-(3-fluorophenyl)-5-(3-methoxyphenyl)-5-methyl-7H-thieno[2,3-b]pyridine-4,6-dione] | A (0%<A<50%)
CCOc1ccc(C2(C)C(=O)Nc3sc(Cl)c(-c4ccc(C)cc4F)c3C2=O)cc1 (centres unmarked) [No 22, 2-chloro-5-(4-ethoxyphenyl)-3-(2-fluoro-4-methyl-phenyl)-5-methyl-7H-thieno[2,3-b]pyridine-4,6-dione] | B (50%≦B<75%)
CS(=O)(=O)c1ccc(C2(F)C(=O)Nc3sc(Cl)c(-c4ccccc4)c3C2=O)cc1 (centres unmarked) [No 97, 2-chloro-5-fluoro-5-(4-methylsulfonylphenyl)-3-phenyl-7H-thieno[2,3-b]pyridine-4,6-dione] | C (C≧75%)
COc1c(-c2c(Cl)sc3c2C(=O)C(F)(c2ccccc2)C(=O)N3)ccc(F)c1C (centres unmarked) [No 229, 2-chloro-5-fluoro-3-(4-fluoro-2-methoxy-3-methyl-phenyl)-5-phenyl-7H-thieno[2,3-b]pyridine-4,6-dione] | A (0%<A<50%)
CS(=O)(=O)c1cccc(C2(F)C(=O)Nc3sc(Cl)c(-c4ccccc4)c3C2=O)c1 (centres unmarked) [No 82, 2-chloro-5-fluoro-5-(3-methylsulfonylphenyl)-3-phenyl-7H-thieno[2,3-b]pyridine-4,6-dione] | A (0%<A<50%)
COc1ccc(C2(C)C(=O)Nc3sc(Cl)c(-c4cccc(OC)c4)c3C2=O)cc1 (centres unmarked) [No 43, 2-chloro-3-(3-methoxyphenyl)-5-(4-methoxyphenyl)-5-methyl-7H-thieno[2,3-b]pyridine-4,6-dione] | A (0%<A<50%)
CC1(c2ccccc2)C(=O)Nc2sc(Cl)c(-c3cccc(F)c3)c2C1=O (centres unmarked) [No 29, 2-chloro-3-(3-fluorophenyl)-5-methyl-5-phenyl-7H-thieno[2,3-b]pyridine-4,6-dione] | C (C≧75%)
COc1ccc(-c2csc3c2C(=O)C(F)(c2ccccc2)C(=O)N3)cc1 (centres unmarked) [No 201, 5-fluoro-3-(4-methoxyphenyl)-5-phenyl-7H-thieno[2,3-b]pyridine-4,6-dione] | B (50%≦B<75%)
Cc1ccc(C2(C)C(=O)Nc3sc(Cl)c(-c4ccccc4)c3C2=O)cc1 (centres unmarked) [No 31, 2-chloro-5-methyl-3-phenyl-5-(p-tolyl)-7H-thieno[2,3-b]pyridine-4,6-dione] | A (0%<A<50%)
O=C(O)c1cccc(-c2c(F)sc3c2C(=O)C(F)(c2ccccc2)C(=O)N3)c1 (centres unmarked) [No 197, 3-(2,5-difluoro-4,6-dioxo-5-phenyl-7H-thieno[2,3-b]pyridin-3-yl)benzoic acid] | A (0%<A<50%)
Cc1ccc(C2(C)C(=O)Nc3sc(Cl)c(-c4ccc(F)cc4)c3C2=O)cc1 (centres unmarked) [No 50, 2-chloro-3-(4-fluorophenyl)-5-methyl-5-(p-tolyl)-7H-thieno[2,3-b]pyridine-4,6-dione] | A (0%<A<50%)
COc1ccc(-c2c(F)sc3c2C(=O)C(F)(c2ccccc2)C(=O)N3)cc1 (centres unmarked) [No 202, 2,5-difluoro-3-(4-methoxyphenyl)-5-phenyl-7H-thieno[2,3-b]pyridine-4,6-dione] | B (50%≦B<75%)
Cc1cccc(C2(C)C(=O)Nc3sc(Cl)c(-c4ccccc4F)c3C2=O)c1 (centres unmarked) [No 92, 2-chloro-3-(2-fluorophenyl)-5-methyl-5-(m-tolyl)-7H-thieno[2,3-b]pyridine-4,6-dione] | A (0%<A<50%)
Cc1cccc(-c2c(F)sc3c2C(=O)C(F)(c2ccccc2)C(=O)N3)c1 (centres unmarked) [No 137, 2,5-difluoro-3-(m-tolyl)-5-phenyl-7H-thieno[2,3-b]pyridine-4,6-dione] | C (C≧75%)

Test system: ob/ob and db/db mice
Assay: not given
Conditions: 8 day AICAR administration; cited from earlier work

SMILES | reduces blood glucose
NC(=O)c1ncn([C@@H]2O[C@H](CO)[C@@H](O)[C@H]2O)c1N [AICAR] | 35%

Reference: patent publication US9365584B2, “Thieno [2,3-B] pyridinedione activators of AMPK and therapeutic uses thereof” (Poxel, priority 2009, dated 2016)
